Several values for one entry are separate records, joined by “and”; a condition that tells them apart may be missing. Identical values can stand only once.
Columns and labels:
SARS-CoV-2-nLUC [1] = assay: microbe, parasite or virus in culture; format: cell-based; settings: GGTI vs DMSO; replicates
omicron BA4.6 variant = assay: Drug combination, omicron BA4.6 in VeroE6, qRT-PCR; format: cell-based, SARS-CoV-2; settings: replicates
[2] = system: SARS-CoV-2-nLuc in cells overexpressing W106R mutant FTase; format: cell-based
[3] = system: SARS-CoV-2-nLuc in cells overexpressing WT FTase; assay: microbe, parasite or virus in culture; format: cell-based; settings: for luciferase activity (relative): WT
SARS-CoV-2-nLUC [4] = format: cell-based

## Cc1nc[nH]c1CN1CCN(C(=O)N[C@@H](CC(C)C)C(=O)O)[C@@H](Cc2ccccc2)C1=O [GGTI2418]
SARS-CoV-2-nLUC [1]
  signal relative to DMSO (sheet S7A): 90.3685 and 93.0121 and 91.627 and 90.3081

## NC(=O)N1CCC(CC(=O)N2CCC([C@H]3c4ncc(Br)cc4CCc4cc(Cl)cc(Br)c43)CC2)CC1 [LNF, lonafarnib]
Omicron BA4.6 variant; LNF 1/ NRTV 0
  S3E viral level relative to LNF 0/ NRTV 0: 69.1766 and 49.5863 and 50.5202
Omicron BA4.6 variant; LNF 1/ RDV 0
  S3D viral level relative to LNF 0/ RDV 0: 32.8373 and 32.7511 and 35.1123
Omicron BA4.6 variant; LNF 10/ NRTV 0
  S3E viral level relative to LNF 0/ NRTV 0: 2.995 and 4.305 and 4.101
Omicron BA4.6 variant; LNF 10/ RDV 0
  S3D viral level relative to LNF 0/ RDV 0: 2.77 and 3.103 and 2.149
[2]
  fold less effective in cells expressing mutant FTase vs WT: ~2 fold
[2]; read-out: Mut IC50
  IC50: 2200 nM
[3]; Severe acute respiratory syndrome coronavirus 2, Vero C1008, VeroE6 transfected with WT FNTB, 24 h
  IC50: 1100 nM
[3]; Log[LNF} mM (printed) 0.09691
  luciferase activity (relative): 63.7112 and 63.9819 and 49.739 and 50.5313
[3]; Log[LNF} mM (printed) 0.39794
  luciferase activity (relative): 34.2371 and 34.2326 and 46.1621 and 47.4504
[3]; Log[LNF} mM (printed) 0.69897
  luciferase activity (relative): 15.3696 and 15.2721 and 16.4684 and 16.5029
[3]; Log[LNF} mM (printed) 1
  luciferase activity (relative): 6.188 and 5.457 and 5.008 and 4.944
[3]; Log[LNF} mM (printed) -0.20412
  luciferase activity (relative): 54.7411 and 54.7908 and 56.706 and 57.079
[3]; Log[LNF} mM (printed) -0.50515
  luciferase activity (relative): 62.6012 and 61.9491 and 68.0615 and 68.2295
[3]; Log[LNF} mM (printed) -0.80618
  luciferase activity (relative): 99.8257 and 98.9 and 84.2901 and 84.2134
[3]; Log[LNF} mM (printed) -1.10721
  luciferase activity (relative): 97.017 and 96.4383 and 93.6225 and 92.4394

## CC(C)(C)[C@H](NC(=O)C(F)(F)F)C(=O)N1C[C@H]2[C@@H]([C@H]1C(=O)N[C@H](C#N)C[C@@H]1CCNC1=O)C2(C)C [NRTV, nirmatrelvir]
Omicron BA4.6 variant; LNF 0/ NRTV 0.5
  S3E viral level relative to LNF 0/ NRTV 0: 47.9329 and 37.1942 and 53.3183
Omicron BA4.6 variant; LNF 0/ NRTV 5
  S3E viral level relative to LNF 0/ NRTV 0: 1.354 and 1.072 and 1.497

## CN(C)C(=O)COC(=O)Cc1ccc(OC(=O)c2ccc(NC(=N)N)cc2)cc1 [camostat]
SARS-CoV-2-nLUC [4]
  infection signal (sheet S4F): 74.3368 and 81.9164 and 86.4071 and 85.3028 and 90.7155 and 94.6132 and 81.833 and 79.6415

From paper PMC11721293 (JCI Insight, 2025)
